# Results taken from ChEMBL document CHEMBL4507284, “Data for DCP probe BI-1230” (2021).
# Experiments:
# [1] = test system: Phosphatidylinositol 4,5-bisphosphate 3-kinase catalytic subunit alpha isoform (Homo sapiens), P42336 [C420R]; details: Compound concentration 1000.0 nM
# [2] = target: Interleukin-1 receptor-associated kinase 3 (Homo sapiens) (UniProt Q9Y616); details: Compound concentration 1000.0 nM
# [3] = target: Serine/threonine-protein kinase NLK (Homo sapiens) (UniProt Q9UBE8); details: Compound concentration 1000.0 nM
# [4] = target: 5-hydroxytryptamine receptor 5A (Homo sapiens) (UniProt P47898); details: Compound concentration 10.0 uM
# [5] = target: Receptor-type tyrosine-protein kinase FLT3 (Homo sapiens) (UniProt P36888); details: Compound concentration 1000.0 nM
# [6] = target: Mitogen-activated protein kinase kinase kinase 13 (Homo sapiens) (UniProt O43283); details: Compound concentration 1000.0 nM
# [7] = target: Epithelial discoidin domain-containing receptor 1 (Homo sapiens) (UniProt Q08345); details: Compound concentration 1000.0 nM
# [8] = target: Homeodomain-interacting protein kinase 3 (Homo sapiens) (UniProt Q9H422); details: Compound concentration 1000.0 nM
# [9] = target: Insulin-like growth factor 1 receptor (Homo sapiens) (UniProt P08069); details: Compound concentration 1000.0 nM
# [10] = test system: Epidermal growth factor receptor (Homo sapiens), P00533 [G719C]; details: Compound concentration 1000.0 nM
# [11] = target: Cyclin-dependent kinase 7 (Homo sapiens) (UniProt P50613); details: Compound concentration 1000.0 nM
# [12] = target: Mitogen-activated protein kinase 11 (Homo sapiens) (UniProt Q15759); details: Compound concentration 1000.0 nM
# [13] = target: Serine/threonine-protein kinase STK11 (Homo sapiens) (UniProt Q15831); details: Compound concentration 1000.0 nM
# [14] = target: Mitogen-activated protein kinase 10 (Homo sapiens) (UniProt P53779); details: Compound concentration 1000.0 nM
# [15] = target: Protein-tyrosine kinase 6 (Homo sapiens) (UniProt Q13882); details: Compound concentration 1000.0 nM
# [16] = target: Phosphatidylinositol 4-kinase beta (Homo sapiens) (UniProt Q9UBF8); details: Compound concentration 1000.0 nM
# [17] = target: Serine/threonine-protein kinase 38 (Homo sapiens) (UniProt Q15208); details: Compound concentration 1000.0 nM
# [18] = target: Ribosomal protein S6 kinase alpha-2 (Homo sapiens) (UniProt Q15349); details: Compound concentration 1000.0 nM
# [19] = target: Cyclin-dependent kinase 16 (Homo sapiens) (UniProt Q00536); details: Compound concentration 1000.0 nM
# [20] = target: G protein-coupled receptor kinase 3 (Homo sapiens) (UniProt P35626); details: Compound concentration 1000.0 nM
# [21] = test system: Epidermal growth factor receptor (Homo sapiens), P00533 [L858R]; details: Compound concentration 1000.0 nM
# [22] = target: Serine/threonine-protein kinase ULK2 (Homo sapiens) (UniProt Q8IYT8); details: Compound concentration 1000.0 nM
# [23] = target: Vascular endothelial growth factor receptor 1 (Homo sapiens) (UniProt P17948); details: Compound concentration 1000.0 nM
# [24] = target: Activin receptor type-1B (Homo sapiens) (UniProt P36896); details: Compound concentration 1000.0 nM
# [25] = target: Serine/threonine-protein kinase SIK3 (Homo sapiens) (UniProt Q9Y2K2); details: Compound concentration 1000.0 nM
# [26] = target: Wee1-like protein kinase 2 (Homo sapiens) (UniProt P0C1S8); details: Compound concentration 1000.0 nM
# [27] = target: Cyclin-dependent kinase 2 homolog (Plasmodium falciparum (isolate 3D7)) (UniProt P61075); details: Compound concentration 1000.0 nM
# [28] = target: Platelet-derived growth factor receptor alpha (Homo sapiens) (UniProt P16234); details: Compound concentration 1000.0 nM
# [29] = target: Platelet-derived growth factor receptor beta (Homo sapiens) (UniProt P09619); details: Compound concentration 1000.0 nM
# [30] = target: Fibroblast growth factor receptor 4 (Homo sapiens) (UniProt P22455); details: Compound concentration 1000.0 nM
# [31] = test system: Mast/stem cell growth factor receptor Kit (Homo sapiens), P10721 [A829P]; details: Compound concentration 1000.0 nM
# [32] = target: Myosin light chain kinase (Homo sapiens) (UniProt Q32MK0); details: Compound concentration 1000.0 nM
# [33] = target: Alpha-2B adrenergic receptor (Homo sapiens) (UniProt P18089); details: Compound concentration 10.0 uM
# [34] = target: Serine/threonine-protein kinase 16 (Homo sapiens) (UniProt O75716); details: Compound concentration 1000.0 nM
# [35] = target: Beta-3 adrenergic receptor (Homo sapiens, UniProt P13945); details: Compound concentration 10.0 uM
# [36] = target: Tyrosine-protein kinase SYK (Homo sapiens) (UniProt P43405); details: Compound concentration 1000.0 nM
# [37] = target: RAF proto-oncogene serine/threonine-protein kinase (Homo sapiens) (UniProt P04049); details: Compound concentration 1000.0 nM
# [38] = target: cAMP-dependent protein kinase catalytic subunit beta (Homo sapiens) (UniProt P22694); details: Compound concentration 1000.0 nM
# [39] = target: 5-hydroxytryptamine receptor 2A (Homo sapiens) (UniProt P28223); details: Compound concentration 10.0 uM
# [40] = target: TGF-beta receptor type-2 (Homo sapiens) (UniProt P37173); details: Compound concentration 1000.0 nM
# [41] = target: Serine/threonine-protein kinase haspin (Homo sapiens) (UniProt Q8TF76); details: Compound concentration 1000.0 nM
# [42] = target: Serine/threonine-protein kinase RIO1 (Homo sapiens) (UniProt Q9BRS2); details: Compound concentration 1000.0 nM
# [43] = target: NUAK family SNF1-like kinase 2 (Homo sapiens) (UniProt Q9H093); details: Compound concentration 1000.0 nM
# [44] = target: Receptor-interacting serine/threonine-protein kinase 4 (Homo sapiens) (UniProt P57078); details: Compound concentration 1000.0 nM
# [45] = target: Serine/threonine-protein kinase NIM1 (Homo sapiens) (UniProt Q8IY84); details: Compound concentration 1000.0 nM
# Chain of Serine/threonine-protein kinase NIM1 (Homo sapiens) (Q8IY84 whole entry): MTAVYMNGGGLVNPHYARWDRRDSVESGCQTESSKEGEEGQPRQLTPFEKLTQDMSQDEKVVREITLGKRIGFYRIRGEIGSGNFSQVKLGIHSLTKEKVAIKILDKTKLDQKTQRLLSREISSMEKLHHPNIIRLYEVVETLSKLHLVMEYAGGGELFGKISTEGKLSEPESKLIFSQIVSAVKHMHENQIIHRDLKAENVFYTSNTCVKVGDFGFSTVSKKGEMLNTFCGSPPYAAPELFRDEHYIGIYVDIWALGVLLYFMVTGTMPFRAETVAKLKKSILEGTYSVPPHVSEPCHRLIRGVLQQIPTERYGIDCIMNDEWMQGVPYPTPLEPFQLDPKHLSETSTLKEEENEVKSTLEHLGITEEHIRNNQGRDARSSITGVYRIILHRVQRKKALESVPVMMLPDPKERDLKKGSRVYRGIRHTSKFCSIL
# Chain of Fibroblast growth factor receptor 4 (Homo sapiens) (P22455 22-802 limits assumed): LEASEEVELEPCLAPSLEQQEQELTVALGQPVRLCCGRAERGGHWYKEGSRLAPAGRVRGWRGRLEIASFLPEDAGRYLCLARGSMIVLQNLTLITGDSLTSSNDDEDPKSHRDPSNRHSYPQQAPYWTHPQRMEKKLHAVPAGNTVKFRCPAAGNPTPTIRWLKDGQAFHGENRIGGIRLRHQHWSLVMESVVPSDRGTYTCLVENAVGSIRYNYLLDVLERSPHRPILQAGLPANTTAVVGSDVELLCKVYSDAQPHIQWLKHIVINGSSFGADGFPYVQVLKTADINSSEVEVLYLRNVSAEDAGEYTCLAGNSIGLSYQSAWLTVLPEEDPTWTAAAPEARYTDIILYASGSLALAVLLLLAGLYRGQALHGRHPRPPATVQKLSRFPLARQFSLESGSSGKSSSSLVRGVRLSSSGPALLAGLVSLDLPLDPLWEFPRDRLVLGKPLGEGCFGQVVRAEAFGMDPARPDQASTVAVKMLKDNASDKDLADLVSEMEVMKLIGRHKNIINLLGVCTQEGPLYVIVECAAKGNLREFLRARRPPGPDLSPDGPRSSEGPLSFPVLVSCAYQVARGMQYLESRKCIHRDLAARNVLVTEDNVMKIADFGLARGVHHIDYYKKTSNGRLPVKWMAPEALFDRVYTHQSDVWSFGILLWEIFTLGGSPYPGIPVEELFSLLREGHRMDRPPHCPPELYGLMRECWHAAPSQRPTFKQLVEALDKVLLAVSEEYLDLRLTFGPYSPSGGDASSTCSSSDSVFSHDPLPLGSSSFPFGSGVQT
# Chain of Serine/threonine-protein kinase ULK2 (Homo sapiens) (Q8IYT8 whole entry): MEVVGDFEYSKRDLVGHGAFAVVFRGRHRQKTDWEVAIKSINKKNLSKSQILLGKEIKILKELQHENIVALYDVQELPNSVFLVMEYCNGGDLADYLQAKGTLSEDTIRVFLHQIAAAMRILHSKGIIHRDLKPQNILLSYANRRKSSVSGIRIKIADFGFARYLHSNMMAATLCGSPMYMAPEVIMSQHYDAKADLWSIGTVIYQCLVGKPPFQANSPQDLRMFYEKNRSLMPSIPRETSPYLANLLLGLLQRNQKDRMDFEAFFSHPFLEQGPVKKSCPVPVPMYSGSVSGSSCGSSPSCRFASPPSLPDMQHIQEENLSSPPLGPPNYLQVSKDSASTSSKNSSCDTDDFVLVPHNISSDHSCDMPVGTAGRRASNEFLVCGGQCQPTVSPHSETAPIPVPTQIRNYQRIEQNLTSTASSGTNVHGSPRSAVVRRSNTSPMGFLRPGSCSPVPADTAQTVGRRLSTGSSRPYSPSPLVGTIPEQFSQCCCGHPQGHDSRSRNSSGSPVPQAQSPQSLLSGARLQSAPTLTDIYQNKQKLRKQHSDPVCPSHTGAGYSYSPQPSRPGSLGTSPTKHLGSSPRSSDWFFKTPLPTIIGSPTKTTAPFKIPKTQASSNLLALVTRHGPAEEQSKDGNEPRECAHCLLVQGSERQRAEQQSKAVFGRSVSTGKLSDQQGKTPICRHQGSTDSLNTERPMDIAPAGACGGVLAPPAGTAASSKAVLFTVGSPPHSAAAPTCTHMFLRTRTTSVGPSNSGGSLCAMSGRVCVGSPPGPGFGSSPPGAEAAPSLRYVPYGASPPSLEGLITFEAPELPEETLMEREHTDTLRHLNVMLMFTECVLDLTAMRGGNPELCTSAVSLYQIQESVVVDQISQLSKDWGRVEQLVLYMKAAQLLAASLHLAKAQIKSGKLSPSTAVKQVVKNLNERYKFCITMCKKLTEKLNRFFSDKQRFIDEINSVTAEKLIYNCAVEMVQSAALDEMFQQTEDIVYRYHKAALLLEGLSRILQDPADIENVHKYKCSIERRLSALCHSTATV
# Chain of Serine/threonine-protein kinase haspin (Homo sapiens) (Q8TF76 whole entry): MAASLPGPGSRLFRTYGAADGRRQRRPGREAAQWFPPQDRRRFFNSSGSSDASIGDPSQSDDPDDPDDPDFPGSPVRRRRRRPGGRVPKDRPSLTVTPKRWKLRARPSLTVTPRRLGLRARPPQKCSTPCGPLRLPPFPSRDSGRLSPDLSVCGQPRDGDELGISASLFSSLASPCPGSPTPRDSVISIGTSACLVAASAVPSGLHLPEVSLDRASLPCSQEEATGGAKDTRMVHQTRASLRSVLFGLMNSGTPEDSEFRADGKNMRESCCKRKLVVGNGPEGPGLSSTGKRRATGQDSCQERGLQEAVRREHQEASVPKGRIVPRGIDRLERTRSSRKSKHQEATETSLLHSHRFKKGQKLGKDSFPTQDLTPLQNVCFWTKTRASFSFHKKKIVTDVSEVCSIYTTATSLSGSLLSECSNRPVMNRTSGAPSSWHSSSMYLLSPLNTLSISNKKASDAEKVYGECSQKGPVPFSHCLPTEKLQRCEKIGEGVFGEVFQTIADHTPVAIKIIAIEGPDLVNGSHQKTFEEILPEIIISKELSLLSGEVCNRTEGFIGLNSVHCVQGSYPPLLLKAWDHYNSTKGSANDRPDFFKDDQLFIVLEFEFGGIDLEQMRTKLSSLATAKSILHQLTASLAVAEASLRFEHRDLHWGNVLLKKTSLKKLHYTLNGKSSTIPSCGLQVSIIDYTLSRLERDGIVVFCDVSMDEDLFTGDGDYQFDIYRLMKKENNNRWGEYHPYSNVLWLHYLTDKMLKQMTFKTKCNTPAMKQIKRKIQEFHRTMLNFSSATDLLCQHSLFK
# Chain of Wee1-like protein kinase 2 (Homo sapiens) (P0C1S8 whole entry, looked up): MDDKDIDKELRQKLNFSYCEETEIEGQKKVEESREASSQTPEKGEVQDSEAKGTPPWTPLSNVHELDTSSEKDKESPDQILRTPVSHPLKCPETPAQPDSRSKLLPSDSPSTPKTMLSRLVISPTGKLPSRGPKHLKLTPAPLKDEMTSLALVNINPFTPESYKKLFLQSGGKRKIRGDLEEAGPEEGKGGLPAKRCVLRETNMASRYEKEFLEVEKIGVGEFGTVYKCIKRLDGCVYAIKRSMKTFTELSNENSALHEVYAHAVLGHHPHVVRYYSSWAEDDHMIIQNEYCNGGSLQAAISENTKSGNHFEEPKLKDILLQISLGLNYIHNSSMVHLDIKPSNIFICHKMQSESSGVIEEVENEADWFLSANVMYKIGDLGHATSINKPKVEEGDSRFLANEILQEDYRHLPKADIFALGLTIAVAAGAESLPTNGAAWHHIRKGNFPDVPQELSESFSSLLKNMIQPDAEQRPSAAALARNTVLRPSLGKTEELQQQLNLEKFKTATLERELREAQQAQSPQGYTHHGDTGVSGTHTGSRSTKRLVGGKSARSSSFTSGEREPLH
# Chain of Serine/threonine-protein kinase STK11 (Homo sapiens) (Q15831 whole entry): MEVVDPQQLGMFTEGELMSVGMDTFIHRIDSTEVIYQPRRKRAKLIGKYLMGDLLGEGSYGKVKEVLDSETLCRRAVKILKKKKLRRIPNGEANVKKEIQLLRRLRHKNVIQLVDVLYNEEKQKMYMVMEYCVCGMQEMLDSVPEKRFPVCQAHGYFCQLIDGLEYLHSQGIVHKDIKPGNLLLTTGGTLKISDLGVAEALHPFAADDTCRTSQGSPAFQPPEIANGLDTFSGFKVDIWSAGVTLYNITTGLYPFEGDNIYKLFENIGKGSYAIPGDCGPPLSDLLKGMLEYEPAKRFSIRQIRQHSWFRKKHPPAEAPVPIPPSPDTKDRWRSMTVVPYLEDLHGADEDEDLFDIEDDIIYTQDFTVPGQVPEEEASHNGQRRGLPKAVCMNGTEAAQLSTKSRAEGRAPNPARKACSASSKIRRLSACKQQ
# Chain of Serine/threonine-protein kinase 16 (Homo sapiens) (O75716 whole entry): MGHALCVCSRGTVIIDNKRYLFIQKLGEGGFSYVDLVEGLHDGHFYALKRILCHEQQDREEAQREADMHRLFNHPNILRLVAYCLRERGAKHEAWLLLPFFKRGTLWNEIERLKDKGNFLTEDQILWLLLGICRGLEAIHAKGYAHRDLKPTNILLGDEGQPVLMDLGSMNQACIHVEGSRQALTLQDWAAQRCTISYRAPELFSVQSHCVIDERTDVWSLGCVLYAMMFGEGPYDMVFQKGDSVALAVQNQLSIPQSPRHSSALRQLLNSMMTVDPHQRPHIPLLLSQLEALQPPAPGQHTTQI
# Chain of TGF-beta receptor type-2 (Homo sapiens) (P37173 whole entry): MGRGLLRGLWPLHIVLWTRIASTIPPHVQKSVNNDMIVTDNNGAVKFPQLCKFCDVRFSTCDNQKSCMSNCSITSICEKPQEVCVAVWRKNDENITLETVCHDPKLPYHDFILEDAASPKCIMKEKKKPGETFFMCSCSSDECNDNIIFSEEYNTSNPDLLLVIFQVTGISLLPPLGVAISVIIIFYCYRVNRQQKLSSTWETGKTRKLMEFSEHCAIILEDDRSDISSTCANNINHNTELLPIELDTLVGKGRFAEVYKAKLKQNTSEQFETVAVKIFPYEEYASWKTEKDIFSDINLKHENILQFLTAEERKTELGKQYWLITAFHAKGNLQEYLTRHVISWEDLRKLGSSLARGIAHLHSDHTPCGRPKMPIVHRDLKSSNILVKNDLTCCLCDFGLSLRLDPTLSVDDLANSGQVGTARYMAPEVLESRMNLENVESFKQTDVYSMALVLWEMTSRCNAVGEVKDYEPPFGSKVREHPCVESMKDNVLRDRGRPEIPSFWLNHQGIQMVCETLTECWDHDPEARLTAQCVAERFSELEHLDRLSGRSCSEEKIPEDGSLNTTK
structure (smiles),measurement,setting,value
COc1ccc2c(O[C@@H]3C[C@H]4C(=O)N[C@]5(C(=O)O)CC5/C=C\CCCCC[C@H](NC(=O)OC5CCCC5)C(=O)N4C3)cc(-c3csc(NC(=O)C(C)C)n3)nc2c1C (stereo not given in full) [BI 1230],residual activity,[1],100%
same,residual activity,[2],97%
same,residual activity,[3],99%
same,inhibition,[4],22.1%
same,residual activity,[5],87%
same,residual activity,[6],86%
same,residual activity,[7],100%
same,residual activity,[8],83%
same,residual activity,[9],98%
same,residual activity,[10],76%
same,residual activity,[11],62%
same,residual activity,[12],100%
same,residual activity,[13],100%
same,residual activity,[14],71%
same,residual activity,[15],97%
same,residual activity,[16],71%
same,residual activity,[17],50%
same,residual activity,[18],100%
same,residual activity,[19],79%
same,residual activity,[20],99%
same,residual activity,[21],100%
same,residual activity,[22],95%
same,residual activity,[23],95%
same,residual activity,[24],100%
same,residual activity,[25],97%
same,residual activity,[26],100%
same,residual activity,[27],83%
same,residual activity,[28],84%
same,residual activity,[29],94%
same,residual activity,[30],100%
same,residual activity,[31],100%
same,residual activity,[32],100%
same,inhibition,[33],60.3%
same,residual activity,[34],100%
same,inhibition,[35],57.4%
same,residual activity,[36],100%
same,residual activity,[37],95%
same,residual activity,[38],100%
same,inhibition,[39],11.4%
same,residual activity,[40],93%
same,residual activity,[41],97%
same,residual activity,[42],93%
same,residual activity,[43],91%
same,residual activity,[44],65%
same,residual activity,[45],83%
O=C(N[C@H]1CCCCC/C=C\C2C[C@@]2(C(=O)O)NC(=O)[C@@H]2C[C@@H](Oc3ccncc3)CN2C1=O)OC1CCCC1 (stereo not given in full) [BI 1675],residual activity,[1],100%
same,residual activity,[2],72%
same,residual activity,[3],100%
same,inhibition,[4],1.81%
same,residual activity,[5],100%
same,residual activity,[6],100%
same,residual activity,[7],100%
same,residual activity,[8],100%
same,residual activity,[9],96%
same,residual activity,[10],59%
same,residual activity,[11],71%
same,residual activity,[12],100%
same,residual activity,[13],85%
same,residual activity,[14],81%
same,residual activity,[15],100%
same,residual activity,[16],81%
same,residual activity,[17],97%
same,residual activity,[18],99%
same,residual activity,[19],83%
same,residual activity,[20],100%
same,residual activity,[21],96%
same,residual activity,[22],100%
same,residual activity,[23],100%
same,residual activity,[24],100%
same,residual activity,[25],95%
same,residual activity,[26],100%
same,residual activity,[27],78%
same,residual activity,[28],99%
same,residual activity,[29],87%
same,residual activity,[30],100%
same,residual activity,[31],98%
same,residual activity,[32],75%
same,inhibition,[33],8.15%
same,residual activity,[34],79%
same,inhibition,[35],-9.47%
same,residual activity,[36],100%
same,residual activity,[37],100%
same,residual activity,[38],100%
same,inhibition,[39],-7.7%
same,residual activity,[40],85%
same,residual activity,[41],100%
same,residual activity,[42],63%
same,residual activity,[43],100%
same,residual activity,[44],94%
same,residual activity,[45],82%
